According to ChEMBL document CHEMBL1133772, “In vitro and in vivo evaluation of dihydropyrimidinone C-5 amides as potent and selective alpha(1A) receptor antagonists for the treatment of benign prostatic hyperplasia” (J Med Chem, 2000):

Tests used:
Rattus norvegicus [1] = species: Rattus norvegicus; assay: Evaluated for the inhibition of A61603-induced prostate contraction in rat; assay type: functional, Prostate gland
[2] = biological target: T1, Alpha-1A adrenergic receptor (Homo sapiens, UniProt P35348); assay: Evaluated for the ability to displace [125I]- HEAT from human cloned Alpha-1A adrenergic receptor stably expressed in CHO cells.; assay type: cell-based
T1 sequence (P35348 whole entry): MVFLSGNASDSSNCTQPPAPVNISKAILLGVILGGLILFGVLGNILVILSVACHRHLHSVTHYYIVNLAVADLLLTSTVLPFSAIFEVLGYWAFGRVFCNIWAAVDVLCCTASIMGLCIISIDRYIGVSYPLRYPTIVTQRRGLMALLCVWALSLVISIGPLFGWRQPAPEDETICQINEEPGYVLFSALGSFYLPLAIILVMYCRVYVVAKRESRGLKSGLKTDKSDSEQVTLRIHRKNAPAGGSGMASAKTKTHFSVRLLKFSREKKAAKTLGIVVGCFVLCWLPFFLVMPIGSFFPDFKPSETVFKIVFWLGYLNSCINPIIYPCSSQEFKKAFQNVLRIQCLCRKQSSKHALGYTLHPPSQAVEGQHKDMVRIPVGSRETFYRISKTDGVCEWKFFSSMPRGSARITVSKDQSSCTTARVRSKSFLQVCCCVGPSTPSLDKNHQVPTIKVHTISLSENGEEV

Rattus norvegicus [3] = species: Rattus norvegicus; assay: Duration of action with repeated challenges of A61603 agonist in rat; assay type: functional; further: test concentration or dose not given here
[4] = Bioavailability in rat; assay type: ADME, organism-based; details: in vivo
[5] = biological target: T2, Alpha-1D adrenergic receptor (Homo sapiens, UniProt P25100); assay: Evaluated for the ability to displace [125I]- HEAT from human cloned Alpha-1D adrenergic receptor stably expressed in HEK cells.; assay type: cell-based, HEK293
T2 sequence (P25100 whole entry): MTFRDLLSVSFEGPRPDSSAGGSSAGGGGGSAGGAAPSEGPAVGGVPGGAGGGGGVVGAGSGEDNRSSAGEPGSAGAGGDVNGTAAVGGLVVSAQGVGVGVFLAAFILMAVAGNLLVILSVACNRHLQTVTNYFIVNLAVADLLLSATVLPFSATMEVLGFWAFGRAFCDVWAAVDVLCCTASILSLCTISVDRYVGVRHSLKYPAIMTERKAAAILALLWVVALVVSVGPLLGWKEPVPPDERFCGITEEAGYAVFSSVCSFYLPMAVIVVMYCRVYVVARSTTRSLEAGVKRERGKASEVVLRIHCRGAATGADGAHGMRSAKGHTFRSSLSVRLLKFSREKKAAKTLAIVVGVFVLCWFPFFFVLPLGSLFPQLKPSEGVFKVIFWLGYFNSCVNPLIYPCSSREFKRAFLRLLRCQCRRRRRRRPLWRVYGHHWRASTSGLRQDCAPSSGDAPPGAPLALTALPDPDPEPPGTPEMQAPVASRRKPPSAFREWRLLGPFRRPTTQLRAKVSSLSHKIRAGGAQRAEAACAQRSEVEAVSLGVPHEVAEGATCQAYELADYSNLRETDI

[6] = biological target: T3, Alpha-1B adrenergic receptor (Homo sapiens, UniProt P35368); assay: Evaluated for the ability to displace [125I]- HEAT from human cloned Alpha-1B adrenergic receptor stably expressed in LM cells.; assay type: cell-based
T3 sequence (P35368 whole entry): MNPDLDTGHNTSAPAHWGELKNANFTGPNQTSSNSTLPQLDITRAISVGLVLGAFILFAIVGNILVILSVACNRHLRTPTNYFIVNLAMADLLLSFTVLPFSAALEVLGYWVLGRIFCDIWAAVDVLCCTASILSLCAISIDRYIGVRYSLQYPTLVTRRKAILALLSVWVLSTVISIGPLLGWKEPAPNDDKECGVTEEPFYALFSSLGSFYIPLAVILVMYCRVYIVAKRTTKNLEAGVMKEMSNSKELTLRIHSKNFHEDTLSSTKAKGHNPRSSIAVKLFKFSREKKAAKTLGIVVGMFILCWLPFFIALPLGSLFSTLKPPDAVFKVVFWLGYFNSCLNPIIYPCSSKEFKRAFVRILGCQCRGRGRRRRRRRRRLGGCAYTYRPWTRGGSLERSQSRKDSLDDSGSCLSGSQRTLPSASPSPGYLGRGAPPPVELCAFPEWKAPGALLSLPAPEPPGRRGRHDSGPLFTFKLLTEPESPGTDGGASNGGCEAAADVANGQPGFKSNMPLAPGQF

[7] = t1/2 in rat; assay type: ADME, organism-based; details: in vivo
[8] = biological target: T2, Alpha-1D adrenergic receptor; assay: Ability to displace [125I]- HEAT from human cloned Alpha-1D adrenergic receptor stably expressed in HEK cells.; assay type: cell-based, HEK293
[9] = biological target: T1, Alpha-1A adrenergic receptor; assay: Ability to displace [125I]- HEAT from human cloned Alpha-1A adrenergic receptor stably expressed in CHO cells.; assay type: cell-based
[10] = biological target: T3, Alpha-1B adrenergic receptor; assay: Ability to displace [125I]- HEAT from human cloned Alpha-1B adrenergic receptor stably expressed in LM cells.; assay type: cell-based
Canis familiaris [11] = species: Canis familiaris; assay: Dose effecting a 20 mmHg change in diastolic blood pressure in dog.; assay type: functional, Canis lupus familiaris, Artery
Canis familiaris [12] = species: Canis familiaris; assay: Compound was evaluated for the inhibition of phenylephrine-induced contraction in dog.; assay type: functional, Canis lupus familiaris

Ki [2]	bioavailability [4]	Ki [5]	Ki [6]	half-life [7]	Ki [8]	Ki [9]	Ki [10]	Structure (SMILES)	AD50 (Rattus norvegicus [1])	Duration (Rattus norvegicus [3])	DBP-20 (Canis familiaris [11])	AD50 (Canis familiaris [12])
0.17 nM	0%	810 nM	140 nM	140 min	–	–	–	N#CC1(c2ccc(F)cc2)CCN(CCCNC(=O)C2=CNC(=O)N[C@@H]2c2ccc(F)c(F)c2)CC1	7 µg/kg	0.75 h	–	–
0.18 nM	0%	630 nM	440 nM	< 60 min	–	–	–	CN1C=C(C(=O)NCCCN2CCC(C#N)(c3ccc(F)cc3C#N)CC2)[C@@H](c2ccc(F)c(F)c2)NC1=O	4 µg/kg	3.5 h	–	–
2.6 nM	0%	> 5000 nM	> 2000 nM	42 min	–	–	–	CC1=C(C(=O)NCCCN2CCC(c3ccccn3)CC2)[C@@H](c2ccc(F)c(F)c2)NC(=O)N1	2.3 µg/kg	0.5 h	–	–
0.42 nM	< 6%	285 nM	285 nM	108 min	–	–	–	COCC1=C(C(=O)NCCCN2CCC(c3ccccc3C#N)CC2)[C@@H](c2ccc(F)c(F)c2)NC(=O)N1	7 µg/kg	0.6 h	–	–
20 nM	–	–	110 nM	–	600 nM	–	–	CC1=C(C(=O)NCCCN2CCC(c3ccc(F)cc3)CC2)[C@H](c2ccc(F)c(F)c2)NC(=O)N1C	–	–	–	–
0.14 nM	< 6%	260 nM	35 nM	175 min	–	–	–	COCC1=C(C(=O)NCCCN2CCC(c3ccc(F)cc3C#N)CC2)[C@@H](c2ccc(F)c(F)c2)NC(=O)N1	2.8 µg/kg	1.5 h	–	–
–	8%	–	–	72 min	710 nM	2.3 nM	320 nM	CN1C=C(C(=O)NCCCN2CCC(C#N)(c3ccc(F)cc3)CC2)[C@H](c2ccc(F)c(F)c2)NC1=O	145 µg/kg	–	–	–
0.39 nM	< 6%	2200 nM	1100 nM	45 min	–	–	–	CC1=C(C(=O)NCCCN2CCC(C#N)(c3ccc(F)cc3)CC2)[C@@H](c2ccc(F)c(F)c2)NC(=O)N1C	21 µg/kg	1.5 h	–	–
0.068 nM	0%	69 nM	7.9 nM	48 min	–	–	–	CN1C=C(C(=O)NCCCN2CCC(c3ccc(F)cc3C#N)CC2)[C@@H](c2ccc(F)c(F)c2)NC1=O	5 µg/kg	4 h	–	–
–	–	1200 nM	270 nM	–	–	19 nM	–	O=C1NC(C(F)(F)F)=C(C(=O)NCCCN2CCC(c3ccc(F)cc3)CC2)[C@@H](c2ccc(F)c(F)c2)N1	–	–	–	–
2.5 nM	–	> 3000 nM	1850 nM	–	–	–	–	O=C1NC=C(C(=O)NCCCN2CCC(c3ccccn3)CC2)[C@@H](c2ccc(F)c(F)c2)N1	–	–	–	–
–	17%	–	–	138 min	200 nM	0.18 nM	20 nM	CC1=C(C(=O)NCCCN2CCC(c3ccc(F)cc3)CC2)[C@@H](c2ccc(F)c(F)c2)N(C)C(=O)N1C	9 µg/kg	1 h	–	–
–	< 6%	–	–	72 min	590 nM	0.18 nM	120 nM	CC1=C(C(=O)NCCCN2CCC(c3ccc(F)cc3)CC2)[C@@H](c2ccc(F)c(F)c2)NC(=O)N1C	20 µg/kg	2.5 h	–	–
2.2 nM	–	230 nM	33 nM	–	–	–	–	CC(=O)N1C(=O)N(C)C(C)=C(C(=O)NCCCN2CCC(c3ccc(F)cc3)CC2)[C@H]1c1ccc(F)c(F)c1	–	–	–	–
0.14 nM	–	120 nM	4.8 nM	–	–	–	–	CC1=C(C(=O)NCCCN2CCC(c3ccc(F)cc3)CC2)[C@@H](c2ccc(F)c(F)c2)N(C)C(=O)N1	–	–	–	–
0.13 nM	0%	160 nM	290 nM	43 min	–	–	–	N#Cc1ccccc1C1CCN(CCCNC(=O)C2=CNC(=O)N[C@@H]2c2ccc(F)c(F)c2)CC1	1.5 µg/kg	0.5 h	–	–
0.16 nM	0%	2400 nM	970 nM	45 min	–	–	–	N#Cc1ccccc1C1(C#N)CCN(CCCNC(=O)C2=CNC(=O)N[C@@H]2c2ccc(F)c(F)c2)CC1	3 µg/kg	1 h	–	–
500 nM	–	> 5000 nM	> 2000 nM	–	–	–	–	O=C1NC(C(F)(F)F)=C(C(=O)NCCCN2CCC(c3ccccn3)CC2)[C@@H](c2ccc(F)c(F)c2)N1	–	–	–	–
0.6 nM	0%	> 4000 nM	> 2000 nM	24 min	–	–	–	CC1=C(C(=O)NCCCN2CCC(C#N)(c3ccc(F)cc3C#N)CC2)[C@@H](c2ccc(F)c(F)c2)NC(=O)N1C	5 µg/kg	1 h	–	–
–	< 6%	–	–	66 min	240 nM	0.12 nM	53 nM	CN1C=C(C(=O)NCCCN2CCC(C#N)(c3ccc(F)cc3)CC2)[C@@H](c2ccc(F)c(F)c2)NC1=O	14 µg/kg	4 h	–	–
0.17 nM	0%	215 nM	87 nM	25 min	–	–	–	CC1=C(C(=O)NCCCN2CCC(c3ccc(F)cc3C#N)CC2)[C@@H](c2ccc(F)c(F)c2)NC(=O)N1	1.5 µg/kg	1.5 h	>300 µg/kg	5 µg/kg
20 nM	–	220 nM	700 nM	–	–	–	–	N#Cc1ccccc1C1CCN(CCCNC(=O)C2=C(C(F)(F)F)NC(=O)N[C@@H]2c2ccc(F)c(F)c2)CC1	–	–	–	–
0.75 nM	–	170 nM	25 nM	–	–	–	–	COC(=O)N1C(=O)N(C)C(C)=C(C(=O)NCCCN2CCC(c3ccc(F)cc3)CC2)[C@H]1c1ccc(F)c(F)c1	–	–	–	–
–	–	–	–	–	410 nM	11 nM	85 nM	CC1=C(C(=O)NCCCN2CCC(c3ccc(F)cc3)CC2)[C@H](c2ccc(F)c(F)c2)N(C)C(=O)N1C	–	–	–	–
0.3 nM	< 6%	250 nM	72 nM	15 min	–	–	–	CN1C=C(C(=O)NCCCN2CCC(C#N)(c3ccc(F)cc3C#N)CC2)[C@@H](c2ccc(F)c(F)c2)N(C)C1=O	13 µg/kg	3 h	–	–
0.07 nM	0%	62 nM	26 nM	174 min	–	–	–	N#Cc1cc(F)ccc1C1CCN(CCCNC(=O)C2=CNC(=O)N[C@@H]2c2ccc(F)c(F)c2)CC1	1.8 µg/kg	2 h	–	–
4.2 nM	–	270 nM	200 nM	–	–	–	–	N#Cc1cc(F)ccc1C1CCN(CCCNC(=O)C2=C(C(F)(F)F)NC(=O)N[C@@H]2c2ccc(F)c(F)c2)CC1	–	–	–	–

Structure (SMILES)	Ki [2]	bioavailability [4]	Ki [5]	Ki [6]	half-life [7]	Ki [8]	Ki [9]	Ki [10]	AD50 (Rattus norvegicus [1])	Duration (Rattus norvegicus [3])	DBP-20 (Canis familiaris [11])	AD50 (Canis familiaris [12])
O=C1NC=C(C(=O)NCCCN2CCC(O)(c3ccc(F)cc3)CC2)[C@@H](c2ccc(F)c(F)c2)N1	0.91 nM	0%	880 nM	160 nM	37 min	–	–	–	1.2 µg/kg	0.5 h	–	–
